{"source": "patent EP0300107A1", "about": "“Ester, thioester and amide derivatives of oxolinic acid, process for their synthesis and their therapeutical use” (VETOQUINOL S.A., priority 1987, dated 1989)", "key": {"[1]": {"assay": "Solubility in water and in usual solvents", "settings": "qualitative statement"}, "[2]": {"assay": "Presence of the active principle in tissues after intramuscular injection in the rat", "type": "in vivo", "settings": "i.m., 20 mg/kg en équivalent acide oxolinique", "description": "d/ Détermination de la présence du principe actif dans les tissus après injection par voie intramusculaire chez le rat\nDose administrée : 20 mg/kg en équivalent acide oxolinique TABLEAU VI"}, "[3]": {"assay": "Plasma levels after intravenous injection in the dog", "set-up": "species or system chien", "settings": "in vivo", "description": "b/ Détermination des taux plasmatiques après injection intraveineuse chez le chien\nDose administrée : 15 mg/kg en équivalent acide oxolinique TABLEAU IV"}, "[4]": {"assay": "Plasma levels after intramuscular injection in the dog", "set-up": "species or system chien", "settings": "in vivo; for concentration at 0.5 h / concentration at 1 h / concentration at 2 h / concentration at 4 h / concentration at 6 h / concentration at 12 h / concentration at 24 h: dog, im", "description": "a/ Détermination des taux plasmatiques après injection par voie intramusculaire chez le chien\nDose administrée : 15 mg/kg en équivalent acide oxolinique (Comparaison avec l'activité pharmacocinétique de l'acide oxolinique) TABLEAU III"}, "[5]": {"assay": "Plasma levels after intramuscular injection in the rat", "type": "in vivo", "description": "c/ Détermination des taux plasmatiques après injection par voie intramusculaire chez le rat\nDose administrée : 20 mg/kg en équivalent acide oxolinique TABLEAU V"}, "[6]": {"assay": "Hydrolysis kinetics at room temperature", "type": "physicochemical", "from_the_text": "Ainsi par exemple, l'étude cinétique à température ambiante de l'hydrolyse du composé JL 93V (stable en milieu faiblement acide et en milieu neutre) montre qu'il y a libération d'environ 50 % du principe actif (acide oxolinique) après 24 heures d'hydrolyse en milieu hydroxyde de sodium 0,001 M et coupure immédiate de la liaison ester en milieu hydroxyde de sodium 0,1 M. Cette liaison ester, tout comme d'ailleurs la liaison thioester ou amide, apparaît donc comme étant suffisamment labile par hydrolyse pour libérer le principe actif dans l'organisme."}, "[7]": {"assay": "Acute toxicity, lethal dose 50 in the mouse", "settings": "in vivo, souris, read-out: DL 50 (the source's name)", "description": "La toxicité des composés selon l'invention a également été étudiée par la mesure de la dose léthale 50 (DL 50) chez la souris et ils se sont révélés être satisfaisants sur ce plan. A titre d'exemple, on notera que pour le composé JL 93V, la DL 50 (souris; voie intraveineuse) est de 240 mg/kg et que la DL 50 (souris; voie orale) est de 1120 mg/kg."}}, "note": "Like-named read-outs stand apart in the source and are kept apart here."}
{"smiles": "CCn1cc(C(=O)O)c(=O)c2cc3c(cc21)OCO3", "note": "[Acide oxolinique, acide oxolinique, reference compound]", "values": [{"measurement": "solubilité dans l'eau ou les solvants organiques habituellement utilisés en galénique", "setting": "[1]", "value": "relativement peu soluble"}, {"measurement": "Présence dans les tissus (foie, poumons, reins, muscles)", "setting": "[2]; 1 h", "value": "nulle"}, {"measurement": "Présence dans les tissus (foie, poumons, reins, muscles)", "setting": "[2]; 3 h", "value": "nulle"}, {"measurement": "Présence dans les tissus (foie, poumons, reins, muscles)", "setting": "[2]; 6 h", "value": "nulle"}, {"measurement": "Présence dans les tissus (foie, poumons, reins, muscles)", "setting": "[2]; 24 h", "value": "nulle"}, {"measurement": "concentration at 0.5 h", "setting": "[3]; chien, i.v., 15 mg/kg en équivalent acide oxolinique, 0,5 h, read-out: Taux plasmatiques", "value": 36800, "unit": "ng/mL"}, {"measurement": "concentration at 1 h", "setting": "[3]; chien, i.v., 15 mg/kg en équivalent acide oxolinique, 1 h, read-out: Taux plasmatiques", "value": 29800, "unit": "ng/mL"}, {"measurement": "concentration at 2 h", "setting": "[3]; chien, i.v., 15 mg/kg en équivalent acide oxolinique, 2 h, read-out: Taux plasmatiques", "value": 22300, "unit": "ng/mL"}, {"measurement": "concentration at 6 h", "setting": "[3]; chien, i.v., 15 mg/kg en équivalent acide oxolinique, 6 h, read-out: Taux plasmatiques", "value": 8890, "unit": "ng/mL"}, {"measurement": "concentration at 8 h", "setting": "[3]; chien, i.v., 15 mg/kg en équivalent acide oxolinique, 8 h, read-out: Taux plasmatiques", "value": 5650, "unit": "ng/mL"}, {"measurement": "concentration at 10 h", "setting": "[3]; chien, i.v., 15 mg/kg en équivalent acide oxolinique, 10 h, read-out: Taux plasmatiques", "value": 3590, "unit": "ng/mL"}, {"measurement": "concentration at 24 h", "setting": "[3]; chien, i.v., 15 mg/kg en équivalent acide oxolinique, 24 h, read-out: Taux plasmatiques", "value": 150, "unit": "ng/mL"}, {"measurement": "concentration at 0.5 h", "setting": "[4]; chien, i.m., 15 mg/kg en équivalent acide oxolinique, 0,5 h, read-out: Taux plasmatiques", "value": 6060, "unit": "ng/mL"}, {"measurement": "concentration at 1 h", "setting": "[4]; chien, i.m., 15 mg/kg en équivalent acide oxolinique, 1 h, read-out: Taux plasmatiques", "value": 6550, "unit": "ng/mL"}, {"measurement": "concentration at 2 h", "setting": "[4]; chien, i.m., 15 mg/kg en équivalent acide oxolinique, 2 h, read-out: Taux plasmatiques", "value": 5460, "unit": "ng/mL"}, {"measurement": "concentration at 4 h", "setting": "[4]; chien, i.m., 15 mg/kg en équivalent acide oxolinique, 4 h, read-out: Taux plasmatiques", "value": 3030, "unit": "ng/mL"}, {"measurement": "concentration at 6 h", "setting": "[4]; chien, i.m., 15 mg/kg en équivalent acide oxolinique, 6 h, read-out: Taux plasmatiques", "value": 2470, "unit": "ng/mL"}, {"measurement": "concentration at 12 h", "setting": "[4]; chien, i.m., 15 mg/kg en équivalent acide oxolinique, 12 h, read-out: Taux plasmatiques", "value": 1430, "unit": "ng/mL"}, {"measurement": "concentration at 24 h", "setting": "[4]; chien, i.m., 15 mg/kg en équivalent acide oxolinique, 24 h, read-out: Taux plasmatiques", "value": 980, "unit": "ng/mL"}, {"measurement": "Taux plasmatiques", "setting": "[5]; i.m., 20 mg/kg en équivalent acide oxolinique, 6 h", "value": "nul"}, {"measurement": "Taux plasmatiques", "setting": "[5]; i.m., 20 mg/kg en équivalent acide oxolinique, 24 h", "value": "nul"}, {"measurement": "concentration at 1 h", "setting": "[5]; in vivo, im, 20 mg/kg en équivalent acide oxolinique, 1 h, read-out: Taux plasmatiques", "value": 785, "unit": "ng/mL"}, {"measurement": "concentration at 3 h", "setting": "[5]; in vivo, im, 20 mg/kg en équivalent acide oxolinique, 3 h, read-out: Taux plasmatiques", "value": 225, "unit": "ng/mL"}]}
{"smiles": "CCOCCOCCOC(=O)c1cn(CC)c2cc3c(cc2c1=O)OCO3", "note": "[JL 93V]", "values": [{"measurement": "degraded at 24 h", "setting": "[6]; 0.001 m naoh, room temperature, after 24 heures of hydrolysis in hydroxyde de sodium 0,001 M, read-out: libération du principe actif (acide oxolinique)", "value": "~50", "unit": "%"}, {"measurement": "stabilité", "setting": "[6]; milieu faiblement acide and milieu neutre", "value": "stable"}, {"measurement": "coupure de la liaison ester", "setting": "[6]; room temperature, hydroxyde de sodium 0,1 M", "value": "immédiate"}, {"measurement": "LD50", "setting": "[7]; iv, voie intraveineuse", "value": 240, "unit": "mg/kg"}, {"measurement": "LD50", "setting": "[7]; po, voie orale", "value": 1120, "unit": "mg/kg"}, {"measurement": "concentration at 0.5 h", "setting": "[3]; 15 mg/kg", "value": 33600, "unit": "ng/mL"}, {"measurement": "concentration at 1 h", "setting": "[3]; 15 mg/kg", "value": 30200, "unit": "ng/mL"}, {"measurement": "concentration at 2 h", "setting": "[3]; 15 mg/kg", "value": 23400, "unit": "ng/mL"}, {"measurement": "concentration at 6 h", "setting": "[3]; 15 mg/kg", "value": 10900, "unit": "ng/mL"}, {"measurement": "concentration at 8 h", "setting": "[3]; 15 mg/kg", "value": 8230, "unit": "ng/mL"}, {"measurement": "concentration at 10 h", "setting": "[3]; 15 mg/kg", "value": 6350, "unit": "ng/mL"}, {"measurement": "concentration at 24 h", "setting": "[3]; 15 mg/kg", "value": 1190, "unit": "ng/mL"}, {"measurement": "concentration at 0.5 h", "setting": "[4]; 15 mg/kg", "value": 7250, "unit": "ng/mL"}, {"measurement": "concentration at 1 h", "setting": "[4]; 15 mg/kg", "value": 16100, "unit": "ng/mL"}, {"measurement": "concentration at 2 h", "setting": "[4]; 15 mg/kg", "value": 15600, "unit": "ng/mL"}, {"measurement": "concentration at 4 h", "setting": "[4]; 15 mg/kg", "value": 10800, "unit": "ng/mL"}, {"measurement": "concentration at 6 h", "setting": "[4]; 15 mg/kg", "value": 6080, "unit": "ng/mL"}, {"measurement": "concentration at 12 h", "setting": "[4]; 15 mg/kg", "value": 2310, "unit": "ng/mL"}, {"measurement": "concentration at 24 h", "setting": "[4]; 15 mg/kg", "value": 450, "unit": "ng/mL"}, {"measurement": "aire sous la courbe (taux en fonction du temps)", "setting": "[4]; 15 mg/kg", "value": "plus importante"}, {"measurement": "Taux plasmatiques", "setting": "[5]; in vivo, 20 mg/kg", "value": "nul"}, {"measurement": "aire sous la courbe", "setting": "[5]; in vivo, 20 mg/kg", "value": "plus importante"}, {"measurement": "concentration at 1 h", "setting": "[5]; in vivo, im, 20 mg/kg", "value": 15700, "unit": "ng/mL"}, {"measurement": "concentration at 3 h", "setting": "[5]; in vivo, im, 20 mg/kg", "value": 8780, "unit": "ng/mL"}, {"measurement": "concentration at 6 h", "setting": "[5]; in vivo, im, 20 mg/kg", "value": 3420, "unit": "ng/mL"}]}
